Tests used:
Assay in all cases: relative viability (nuclei count vs DMSO), 5 days (fraction); higher = more cells survive
Ispinesib = compound: Cc1ccc(C(=O)N(CCCN)[C@@H](c2nc3cc(Cl)ccc3c(=O)n2Cc2ccccc2)C(C)C)cc1 [Ispinesib]
Method in brief: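 Cells of lung cancer lines were placed in 1536-well plates and kept overnight at 37 °C. Pinning then delivered five library-drug doses (not always all listed), spaced by √10, onto plates anchored with vehicle, and the cells were left 5 days without changing medium. One step fixed, permeabilised and stained them with Hoechst, and MetaXpress counted nuclei in 4× images. Viability, as a median over plates, is treated-well nuclei divided by vehicle-well nuclei, with acceptance only at control CV below 25% and at least one doubling.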

Linsitinib + Navitoclax = compound: C[C@]1(O)C[C@@H](c2nc(-c3ccc4ccc(-c5ccccc5)nc4c3)c3c(N)nccn32)C1 [Linsitinib] + CC1(C)CCC(c2ccc(Cl)cc2)=C(CN2CCN(c3ccc(C(=O)NS(=O)(=O)c4ccc(N[C@H](CCN5CCOCC5)CSc5ccccc5)c(S(=O)(=O)C(F)(F)F)c4)cc3)CC2)C1 [Navitoclax] (partner 0.5 µM)
Method in brief: (§1)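 Relative viability is defined as nuclei in treated wells over nuclei in vehicle wells. Duplicate plates were run and medians reported. Lung cancer cell lines in 1536-well plates were dosed by pin tool one day after seeding, with one drug or with a fixed anchor-drug dose plus five library-drug doses (not always all listed) in √10 steps, and nuclei were counted after 5 days.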

Linsitinib + Vorinostat = compound: C[C@]1(O)C[C@@H](c2nc(-c3ccc4ccc(-c5ccccc5)nc4c3)c3c(N)nccn32)C1 [Linsitinib] + O=C(CCCCCCC(=O)Nc1ccccc1)NO [Vorinostat] (partner 1 µM)
Method in brief: as §1

Ispinesib + Pemetrexed = compound: Cc1ccc(C(=O)N(CCCN)[C@@H](c2nc3cc(Cl)ccc3c(=O)n2Cc2ccccc2)C(C)C)cc1 [Ispinesib] + Nc1nc2[nH]cc(CCc3ccc(C(=O)N[C@@H](CCC(=O)O)C(=O)O)cc3)c2c(=O)[nH]1 [Pemetrexed] (partner 0.2 µM)
Method in brief: as §1

Cell Line | relative viability (Ispinesib; 0.001 µM) | relative viability (Ispinesib; 0.003162 µM) | relative viability (Ispinesib; 0.01 µM) | relative viability (Ispinesib; 0.03162 µM) | relative viability (Ispinesib; 0.1 µM) | relative viability (Linsitinib + Navitoclax; first compound 0.01 µM) | relative viability (Linsitinib + Navitoclax; first compound 0.03162 µM) | relative viability (Linsitinib + Navitoclax; first compound 0.1 µM) | relative viability (Linsitinib + Navitoclax; first compound 0.3162 µM) | relative viability (Linsitinib + Navitoclax; first compound 1 µM) | relative viability (Linsitinib + Vorinostat; first compound 0.01 µM) | relative viability (Linsitinib + Vorinostat; first compound 0.03162 µM) | relative viability (Linsitinib + Vorinostat; first compound 0.1 µM) | relative viability (Linsitinib + Vorinostat; first compound 0.3162 µM) | relative viability (Linsitinib + Vorinostat; first compound 1 µM) | relative viability (Ispinesib + Pemetrexed; first compound 0.001 µM) | relative viability (Ispinesib + Pemetrexed; first compound 0.003162 µM) | relative viability (Ispinesib + Pemetrexed; first compound 0.01 µM) | relative viability (Ispinesib + Pemetrexed; first compound 0.03162 µM) | relative viability (Ispinesib + Pemetrexed; first compound 0.1 µM)
NCI-H2087 | 1.01 | 1.03 | 1.23 | 0.335 | 0.137 | 1.1 | 1.05 | 0.861 | 0.843 | 0.821 | 0.68 | 0.74 | 0.702 | 0.693 | 0.795 | 0.667 | 0.715 | 0.66 | 0.635 | 0.149
NCI-H1650 | 1.07 | 1.02 | 0.912 | 0.261 | 0.196 | 1.33 | 1.36 | 1.29 | 0.743 | 1.1 | 0.51 | 0.505 | 0.621 | 0.386 | 0.377 | 0.381 | 0.368 | 0.372 | 0.321 | 0.161
LK-2 | 1.13 | 1.19 | 1.17 | 0.705 | 0.348 | 0.875 | 0.829 | 0.759 | 0.575 | 0.531 | 0.237 | 0.335 | 0.178 | 0.275 | 0.176 | 0.231 | 0.29 | 0.294 | 0.269 | 0.124
ChaGo-K-1 | 1.05 | 1.06 | 1.12 | 0.91 | 0.354 | 1.09 | 0.793 | 0.829 | 0.377 | 0.939 | 0.798 | 0.774 | 0.78 | – | 0.694 | 0.248 | 0.274 | 0.26 | 0.256 | 0.154
HCC-78 | 0.943 | 1.04 | 1.08 | 0.533 | 0.791 | 0.882 | 0.889 | 0.711 | 0.789 | 0.661 | – | 0.47 | 0.462 | 0.402 | 0.315 | 0.916 | 0.931 | 0.937 | 0.932 | 0.617
NCI-H1666 | 0.997 | 1.05 | 0.953 | 0.79 | 0.508 | 0.994 | 0.867 | 0.939 | 0.549 | 0.646 | 1 | 1.06 | 1.02 | 0.617 | 0.922 | 0.89 | 0.786 | 0.883 | 0.91 | 0.817
EKVX | 0.996 | 0.993 | 1.07 | 0.856 | 0.573 | 0.967 | 0.637 | 0.989 | 0.814 | 0.854 | 0.753 | 0.785 | 0.798 | 0.481 | 0.496 | 0.41 | – | 0.416 | 0.337 | 0.325
COR-L 105 | 1.1 | 0.901 | 0.766 | 0.397 | 0.34 | 0.826 | 0.759 | 0.856 | 0.604 | 0.709 | 0.749 | 0.872 | 0.712 | 0.389 | 0.609 | 1.09 | 1.11 | 1.24 | 0.794 | 0.5
